Tests used:
Assay in all cases: relative viability (nuclei count vs DMSO), 5 days (fraction); higher = more cells survive
COR-L23 = system: COR-L23
Procedure, shortened: (§1)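 A single step with final 0.05% Triton X-100, 1% formaldehyde and 1 ug/ml Hoechst fixed the cells and stained nuclei 5 days after treatment. Lung cancer cell lines in 1536-well plates had been treated by pin tool the day after seeding with one drug alone or a fixed anchor-drug dose plus five library-drug doses (not always all listed) in √10 steps, and nuclei were counted on 4× images. Relative viability is the ratio of nuclei in treated wells to nuclei in vehicle wells, taken as the median of duplicate plates.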

ChaGo-K-1 = system: ChaGo-K-1
Procedure, shortened: as §1

EMC-BAC-2 = system: EMC-BAC-2
Procedure, shortened: as §1

HARA = system: HARA
Procedure, shortened: as §1

HCC-15 = system: HCC-15
Procedure, shortened: as §1

HCC-366 = system: HCC-366
Procedure, shortened: as §1

HCC-78 = system: HCC-78
Procedure, shortened: as §1

HOP-62 = system: HOP-62
Procedure, shortened: as §1

LC-2-ad = system: LC-2-ad
Procedure, shortened: as §1

NCI-H1395 = system: NCI-H1395
Procedure, shortened: as §1

NCI-H1793 = system: NCI-H1793
Procedure, shortened: as §1

NCI-H1944 = system: NCI-H1944
Procedure, shortened: as §1

NCI-H1993 = system: NCI-H1993
Procedure, shortened: as §1

NCI-H2023 = system: NCI-H2023
Procedure, shortened: as §1

NCI-H2126 = system: NCI-H2126
Procedure, shortened: as §1

NCI-H2228 = system: NCI-H2228
Procedure, shortened: as §1

NCI-H23 = system: NCI-H23
Procedure, shortened: as §1

NCI-H2405 = system: NCI-H2405
Procedure, shortened: as §1

NCI-H358 = system: NCI-H358
Procedure, shortened: as §1

NCI-H838 = system: NCI-H838
Procedure, shortened: as §1

SK-LU-1 = system: SK-LU-1
Procedure, shortened: as §1

CCN(CC)CCCCNc1ncc2cc(-c3cc(OC)cc(OC)c3)c(NC(=O)NC(C)(C)C)nc2n1 + CC(=O)Nc1cccc(-n2c(=O)n(C3CC3)c(=O)c3c(Nc4ccc(I)cc4F)n(C)c(=O)c(C)c32)c1 [Trametinib] (partner 0.02 µM)
relative viability (COR-L23; first compound 0.01 µM): 0.579 | relative viability (COR-L23; first compound 0.03162 µM): 0.593 | relative viability (COR-L23; first compound 0.1 µM): 0.667 | relative viability (COR-L23; first compound 0.3162 µM): 0.692 | relative viability (COR-L23; first compound 1 µM): 0.61 | relative viability (ChaGo-K-1; first compound 0.01 µM): 0.906 | relative viability (ChaGo-K-1; first compound 0.03162 µM): 0.902 | relative viability (ChaGo-K-1; first compound 0.1 µM): 0.951 | relative viability (ChaGo-K-1; first compound 0.3162 µM): 0.962 | relative viability (ChaGo-K-1; first compound 1 µM): 0.885 | relative viability (EMC-BAC-2; first compound 0.03162 µM): 0.986 | relative viability (EMC-BAC-2; first compound 0.1 µM): 0.917 | relative viability (EMC-BAC-2; first compound 0.3162 µM): 0.847 | relative viability (EMC-BAC-2; first compound 1 µM): 0.83 | relative viability (HARA; first compound 0.01 µM): 0.589 | relative viability (HARA; first compound 0.03162 µM): 0.632 | relative viability (HARA; first compound 0.1 µM): 0.645 | relative viability (HARA; first compound 0.3162 µM): 0.579 | relative viability (HARA; first compound 1 µM): 0.466 | relative viability (HCC-15; first compound 0.01 µM): 0.427 | relative viability (HCC-15; first compound 0.03162 µM): 0.367 | relative viability (HCC-15; first compound 0.1 µM): 0.414 | relative viability (HCC-15; first compound 0.3162 µM): 0.42 | relative viability (HCC-15; first compound 1 µM): 0.361 | relative viability (HCC-366; first compound 0.01 µM): 0.352 | relative viability (HCC-366; first compound 0.03162 µM): 0.386 | relative viability (HCC-366; first compound 0.1 µM): 0.437 | relative viability (HCC-366; first compound 0.3162 µM): 0.358 | relative viability (HCC-366; first compound 1 µM): 0.309 | relative viability (HCC-78; first compound 0.01 µM): 0.874 | relative viability (HCC-78; first compound 0.03162 µM): 0.685 | relative viability (HCC-78; first compound 0.1 µM): 0.842 | relative viability (HCC-78; first compound 0.3162 µM): 0.819 | relative viability (HCC-78; first compound 1 µM): 0.76 | relative viability (HOP-62; first compound 0.01 µM): 0.452 | relative viability (HOP-62; first compound 0.03162 µM): 0.395 | relative viability (HOP-62; first compound 0.1 µM): 0.398 | relative viability (HOP-62; first compound 0.3162 µM): 0.37 | relative viability (HOP-62; first compound 1 µM): 0.339 | relative viability (LC-2-ad; first compound 0.01 µM): 0.874 | relative viability (LC-2-ad; first compound 0.03162 µM): 1.02 | relative viability (LC-2-ad; first compound 0.1 µM): 0.992 | relative viability (LC-2-ad; first compound 0.3162 µM): 0.967 | relative viability (LC-2-ad; first compound 1 µM): 0.841 | relative viability (NCI-H1395; first compound 0.01 µM): 1.05 | relative viability (NCI-H1395; first compound 0.03162 µM): 0.918 | relative viability (NCI-H1395; first compound 0.1 µM): 0.907 | relative viability (NCI-H1395; first compound 0.3162 µM): 0.63 | relative viability (NCI-H1395; first compound 1 µM): 0.568 | relative viability (NCI-H1793; first compound 0.01 µM): 0.456 | relative viability (NCI-H1793; first compound 0.03162 µM): 0.405 | relative viability (NCI-H1793; first compound 0.1 µM): 0.422 | relative viability (NCI-H1793; first compound 0.3162 µM): 0.337 | relative viability (NCI-H1793; first compound 1 µM): 0.238 | relative viability (NCI-H1944; first compound 0.01 µM): 0.428 | relative viability (NCI-H1944; first compound 0.03162 µM): 0.398 | relative viability (NCI-H1944; first compound 0.1 µM): 0.403 | relative viability (NCI-H1944; first compound 0.3162 µM): 0.416 | relative viability (NCI-H1944; first compound 1 µM): 0.401 | relative viability (NCI-H1993; first compound 0.01 µM): 0.567 | relative viability (NCI-H1993; first compound 0.03162 µM): 0.5 | relative viability (NCI-H1993; first compound 0.1 µM): 0.53 | relative viability (NCI-H1993; first compound 0.3162 µM): 0.557 | relative viability (NCI-H1993; first compound 1 µM): 0.0258 | relative viability (NCI-H2023; first compound 0.01 µM): 0.662 | relative viability (NCI-H2023; first compound 0.03162 µM): 0.551 | relative viability (NCI-H2023; first compound 0.1 µM): 0.624 | relative viability (NCI-H2023; first compound 0.3162 µM): 0.629 | relative viability (NCI-H2023; first compound 1 µM): 0.447 | relative viability (NCI-H2126; first compound 0.01 µM): 0.533 | relative viability (NCI-H2126; first compound 0.03162 µM): 0.578 | relative viability (NCI-H2126; first compound 0.1 µM): 0.58 | relative viability (NCI-H2126; first compound 0.3162 µM): 0.58 | relative viability (NCI-H2126; first compound 1 µM): 0.578 | relative viability (NCI-H2228; first compound 0.01 µM): 0.449 | relative viability (NCI-H2228; first compound 0.03162 µM): 0.551 | relative viability (NCI-H2228; first compound 0.1 µM): 0.311 | relative viability (NCI-H2228; first compound 0.3162 µM): 0.543 | relative viability (NCI-H2228; first compound 1 µM): 0.309 | relative viability (NCI-H23; first compound 0.01 µM): 0.321 | relative viability (NCI-H23; first compound 0.03162 µM): 0.341 | relative viability (NCI-H23; first compound 0.1 µM): 0.432 | relative viability (NCI-H23; first compound 0.3162 µM): 0.4 | relative viability (NCI-H23; first compound 1 µM): 0.319 | relative viability (NCI-H2405; first compound 0.01 µM): 0.574 | relative viability (NCI-H2405; first compound 0.03162 µM): 0.669 | relative viability (NCI-H2405; first compound 0.1 µM): 0.796 | relative viability (NCI-H2405; first compound 0.3162 µM): 0.655 | relative viability (NCI-H2405; first compound 1 µM): 0.5 | relative viability (NCI-H358; first compound 0.01 µM): 0.127 | relative viability (NCI-H358; first compound 0.03162 µM): 0.15 | relative viability (NCI-H358; first compound 0.1 µM): 0.143 | relative viability (NCI-H358; first compound 0.3162 µM): 0.139 | relative viability (NCI-H358; first compound 1 µM): 0.125 | relative viability (NCI-H838; first compound 0.01 µM): 0.469 | relative viability (NCI-H838; first compound 0.03162 µM): 0.515 | relative viability (NCI-H838; first compound 0.1 µM): 0.514 | relative viability (NCI-H838; first compound 0.3162 µM): 0.435 | relative viability (NCI-H838; first compound 1 µM): 0.443 | relative viability (SK-LU-1; first compound 0.01 µM): 0.491 | relative viability (SK-LU-1; first compound 0.03162 µM): 0.444 | relative viability (SK-LU-1; first compound 0.1 µM): 0.434 | relative viability (SK-LU-1; first compound 0.3162 µM): 0.409 | relative viability (SK-LU-1; first compound 1 µM): 0.333
